Source: patent US11667630B2, “Nitrogen-containing 6-membered cyclic compound” (Asahi Kasei Pharma Corporation, priority 2017, dated 2023)

Tests used:
[1] = tested on: rat femur closed fracture model; assay: Fracture healing-promoting action in rat femur closed fracture model; format: in vivo; conditions: SD rats; for Bone union rate after 25 days (%): judged on soft X-ray images; for Maximum torque (N · cm): torsion test of femur four weeks after fracture
Text: In order to investigate fracture healing-promoting action of the compounds of the present invention, influence of injection of microspheres containing a test compound at a fracture site of a rat femur closed fracture model was confirmed.
Thirteen weeks old female SD rats (Japan SLC) were fixed in the side lying position under triple anesthesia (medetomidine hydrochloride, midazolam, and butorphanol tartrate). After hair of a region from the left knee to the femoral region was shaved with a hair clipper, and disinfection treatment was performed with povidone-iodine listed in Japanese Pharmacopoeia (Isodine solution for animals, 20 mg of povidone-iodine listed in Japanese Pharmacopoeia in 1 mL, Meiji Seika Pharma), the skin of the knee part and the medial great muscle of the lateral part of the patella were excised, and the patella was shifted from the femoral head. A drill bit attached to a trephine was put on the intercondylar fossa of the exposed femoral head, and manually rotated to make a bore. A Kirschner wire (Mizuho Co., Ltd.) having a diameter of 1.2 mm preliminarily cut in a length of 31 mm was inserted into the medullary cavity of the femur through the bore. Then, the left femoral region was fixed on a three-point bending test jig of a small desktop universal testing machine (EZ Test, Shimadzu Corp.), and closed fracture of the femoral diaphyseal was caused by giving a dynamic load. Whether fracture was successfully introduced or not was confirmed by confirming generation of a complete transverse fracture in the femoral diaphyseal on an X-ray image obtained with a soft X-ray generator (M-100W, Softex) and a digital X-ray sensor (NX-04, RF Co., Ltd.). A microsphere suspension obtained by suspending microspheres (prepared according to the method of Preparation Example 3) containing a test compound (compound of Example 23) in a CMC solution was injected into the fracture part in a volume of 100 μL as the administration volume (containing 100 or 300 μg of the test compound). As the control group, a drug liquid obtained by suspending the microspheres not containing the aforementioned test compound in the CMC solution (100 μL) alone was administered. One, two, and three weeks after the generation of fracture, soft X-ray images were taken under isoflurane anesthesia, and the areas of the callus part in the X-ray images were quantified by using Image J. Four weeks after the generation of fracture, soft X-ray images were taken under triple anesthesia, the animals were fixed in the supine position, and euthanized by bleeding, and the left femurs were extracted. […] The femur samples were cryopreserved until implementation of a bone strength test, and torsional strength was measured on the test day by using a bone strength measurement apparatus (MZ-500S, Maruto Instrument Co., Ltd.).

[2] = tested on: dog lumbar vertebrae posterolateral fixation model; assay: Bone union-promoting action in dog lumbar vertebrae posterolateral fixation model; format: in vivo; conditions: twelve weeks after operation; for Continuity score based on soft X-ray image (Mean ± SD): grades 0 to 3 per Table 9; for Manual evaluation of bone union: beagle dogs, microspheres containing compound of Example 23 mixed with autologous bone graft, animals with union/5
Description: In order to investigate a bone union-promoting action in the spinal fusion of the compounds of the present invention, influence of mixing of microspheres containing a test compound at the time of autologous bone grafting was confirmed by using a lumbar vertebrae posterolateral fixation model.
Twelve to thirteen months old male beagle dogs ([…] LABES) were anesthetized by administration of a 1:1 mixture of ketamine hydrochloride (Ketalar 500 mg, Daiichi Sankyo Propharma Co., Ltd.) and xylazine (Selactar 2% Injection, Bayer Yakuhin, Ltd.) at a dose of about 0.5 mL/kg, and Japanese Pharmacopoeia-listed isoflurane (Elucaine, produced by Mylan Pharmaceutical) was inhaled with an inhaler IMPAC6 (VetEquip Inc.) to maintain the anesthesia. The animal was fixed in the prone position, hair of a wide area over the right and left spina iliaca posterior superiors, part around iliac crest, and lower back was shaved, and disinfection treatment was performed with povidone-iodine listed in Japanese Pharmacopoeia (Isodine solution for animals, 20 mg of povidone-iodine listed in Japanese Pharmacopoeia in 1 mL, Meiji Seika Pharma) and ethanol for disinfection (Wako Pure Chemical Industries). […] About 2 g each of the right and left iliums were extracted by using a rongeur and bone scissors, and astriction was performed. The collected ilium, from which the soft tissues were removed, was finely broken with bone scissors, and thereby made into chips of 1 mm size to obtain 2 g each of bone grafts for right and left. Then, the skin was dissected along the spinous processes of lower back with a scalpel, the left and right lumbodorsal fascias were dissected, and then the transverse processes of the fourth and fifth lumbar vertebrae were exposed while the multifidus muscle and longissimus muscle were separated and dissected between the fascias thereof. The soft tissues adhering to the transverse processes were removed, and then decortication of the cortical bone on the surface of the transverse processes was performed with an electric drill (OS-40MV2, Osada Electric Co., Ltd.) to prepare a bone graft bed. The bone graft (2 g) prepared above was sufficiently mixed with a microsphere suspension obtained by suspending microspheres containing a test compound (compound of Example 23) in an amount corresponding to 10, 30, or 100 μg of the test compound (prepared according to the method of Preparation Example 1) in 800 μL of a CMC solution, embedded and grafted on the transverse processes of the fourth and fifth lumbar vertebrae, and the bone graft bed between the transverse processes. After the autologous bone grafting, the lumbodorsal fascia, subcutaneous tissues, and skin were sutured, and the surgical site was disinfected. Twelve weeks after the operation, the animals were euthanized with overdose (30 mg/kg) of sodium pentobarbiturate (Somnopentyl, Kyoritsuseiyaku Corporation), and then the lumbar vertebrae were extracted. Bone union was judged by manually confirming movability of the fourth and fifth lumbar vertebrae (manual palpation) under blinding, and soft X-ray images were obtained from one direction by using Softex M-60 (Softex). The test was performed with the groups each consisting of 5 animals.

[3] = microspheres (Preparation Example 3) containing compound of Example 23, 100 μg injected into fracture part
[4] = microspheres (Preparation Example 3) containing compound of Example 23, 300 μg injected into fracture part
[5] = microspheres containing compound of Example 23, 100 μg
[6] = microspheres containing compound of Example 23, 300 μg

## O=C(O)c1ccc(CCN2C(=O)SCCN2CC[C@@H](O)Cc2cccc(C#Cc3ccsc3)c2)s1 [Example 23, (S)-5-(2-(4-(3-Hydroxy-4-(3-(thiophen-3-ylethynyl)phenyl)butyl)-2-oxo-1,3,4-thiadiazinan-3-yl)ethyl)thiophene-2-carboxylic acid]
[1]; [3]
  Callus area (mm^2) One week after fracture: 5.24 ± 2.87 mm^2
  Callus area (mm^2) Three weeks after fracture: 35.9 ± 6.3 mm^2
  Callus area (mm^2) Two weeks after fracture: 28.6 ± 4.7 mm^2
[1]; [4]
  Callus area (mm^2) One week after fracture: 6.01 ± 2.75 mm^2
  Callus area (mm^2) Three weeks after fracture: 33.8 ± 6.8 mm^2
  Callus area (mm^2) Two weeks after fracture: 28.9 ± 3.8 mm^2
[1]; [5]
  Bone union rate after 25 days (%): 90.0%
  Maximum torque (N · cm): 20.4 ± 7.1 N · cm
[1]; [6]
  Bone union rate after 25 days (%): 85.7%
  Maximum torque (N · cm): 26.3 ± 11.7 N · cm
[2]; 10 μg/site
  Continuity score based on soft X-ray image (Mean ± SD): 2.4 ± 0.5
  Manual evaluation of bone union: 4/5
[2]; 30 μg/site
  Continuity score based on soft X-ray image (Mean ± SD): 2.6 ± 0.5
  Manual evaluation of bone union: 4/5
[2]; 100 μg/site
  Continuity score based on soft X-ray image (Mean ± SD): 2.8 ± 0.4
  Manual evaluation of bone union: 4/5
